Test results as given in US9850283B2, “Macrocyclic inhibitors of the PD-1/PD-L1 and CD80(B7-1)/PD-L1 protein/protein interactions” (BRISTOL-MYERS SQUIBB COMPANY, priority 2013, dated 2017).
pIC50: −log10 of the molar value. Where two headings read alike, the source gives them in different places. Starred links: 1 amine or outer side, 2 acyl side, 3 side chain; linkers in the order of their positions; H or OH if unused. Positions of bridges follow the written chain, without caps; N, C: chain ends. Non-standard residues stand in square brackets, D forms with d. Residues, ends and D or L forms follow the SMILES beside them. ξ: configuration not given here. Phe(3,4,5-F3) = N[C@@H](Cc1cc(F)c(F)c(F)c1)C(=O)O; Phe(4-Cl) = N[C@@H](Cc1ccc(Cl)cc1)C(=O)O; X11 = CC1(C)CC[C@H](C(=O)[*:2])N1[*:1]; Bta = N[C@@H](Cc1csc2ccccc12)C(=O)O; ξPro(4R-OH) = O=C(O)C1C[C@@H](O)CN1; Hyp = O=C(O)[C@@H]1C[C@@H](O)CN1; NMeF = CN[C@@H](Cc1ccccc1)C(=O)O; dNMeNle = CCCC[C@@H](NC)C(=O)O; NMeNle = CCCC[C@H](NC)C(=O)O; NMeS = CN[C@@H](CO)C(=O)O; NMeA = CN[C@@H](C)C(=O)O; Orn = NCCC[C@H](N)C(=O)O; ξPip = O=C(O)C1CCCCN1; ξC = NC(CS)C(=O)O; Sar = CNCC(=O)O

What was measured:
[1] = molecular target: T1, LK35.2-hPD-L1 cells / PE-labeled PD-1-Ig (Homo sapiens, UniProt Q9NZQ7); assay: LK35.2-hPD-L1 cell binding high-content screening assay; assay type: cell-based; conditions: cluster symbol, read-out: CBA IC50 cluster
T1 construct: expressed in transfected cells; host or cells: LK35.2 mouse B cell line
T1 sequence (Q9NZQ7 19-290): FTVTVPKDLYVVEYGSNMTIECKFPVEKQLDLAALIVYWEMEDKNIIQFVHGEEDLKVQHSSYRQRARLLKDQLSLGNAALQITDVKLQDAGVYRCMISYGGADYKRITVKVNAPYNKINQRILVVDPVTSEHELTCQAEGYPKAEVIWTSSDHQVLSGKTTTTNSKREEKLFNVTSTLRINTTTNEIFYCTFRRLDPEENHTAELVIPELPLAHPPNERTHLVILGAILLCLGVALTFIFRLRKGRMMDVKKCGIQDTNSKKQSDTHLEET
Method in brief: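 Mouse LK35.2 B cells stably over-expressing human PD-L1, cultured overnight, treated with compound plus PE-labeled human PD-1-Ig (1 nM final) in RPMI/10% FCS for 1 h at 37 °C. After washing, bound fluorescence quantified by high-content imaging.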

Human PD-L1/PD-1 = molecular target: T2, Human PD-L1/PD-1 (Homo sapiens, UniProt Q9NZQ7); assay: HTRF PD-1-Ig/PD-L1-His binding assay (human PD-L1); conditions: cluster symbol; read-out: HTRF IC50 cluster
T2 construct: made in house; host or cells: HEK293T
T2 sequence (Q9NZQ7 with tags, fused parts or gaps): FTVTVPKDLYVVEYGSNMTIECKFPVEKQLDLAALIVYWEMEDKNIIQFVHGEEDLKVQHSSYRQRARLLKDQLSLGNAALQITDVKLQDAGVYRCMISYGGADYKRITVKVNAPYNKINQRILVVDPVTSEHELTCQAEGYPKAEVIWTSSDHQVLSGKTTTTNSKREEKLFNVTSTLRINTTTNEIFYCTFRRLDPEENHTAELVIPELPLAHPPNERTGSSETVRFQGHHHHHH
Method in brief: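 Soluble PD-1-Ig binding to PD-L1-His measured by HTRF in dPBS with 0.1% BSA and 0.05% Tween-20. Detection used europium cryptate anti-Ig antibody (1 nM final) and APC anti-His antibody (20 nM final) added on top of the binding reaction.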

[2] = cell binding assay, cell line not given
[3] = cell line of CBA not given (LK35.2-hPD-L1 or 293T-hPD-L1)

SMILES | pIC50 [1, 2] | pIC50 (Human PD-L1/PD-1) | pIC50 [1, 3]
CCCC[C@H]1C(=O)N(C)[C@@H](CCCC)C(=O)N[C@@H](CO)C(=O)N[C@H](C(=O)NCC(N)=O)CSCC(=O)N[C@@H](Cc2ccc(O)cc2)C(=O)N(C)[C@@H](C)C(=O)N[C@@H](CO)C(=O)N2CCC[C@H]2C(=O)N[C@@H](CO)C(=O)N[C@@H](CO)C(=O)N2C[C@H](O)C[C@H]2C(=O)N[C@@H](Cc2c[nH]c3ccccc23)C(=O)N[C@@H](CO)C(=O)N[C@@H](Cc2c[nH]c3ccccc23)C(=O)N1C [Example 5135] ({CH2CO}-Y[NMeA]SPSS[Hyp]WSW[NMeNle][NMeNle]SCG-NH2; thioether N-14) | 7.14 to 8.32 | 7.52 to 8.17 | –
CCCC[C@H]1C(=O)N(C)CC(=O)N[C@@H](CC(=O)O)C(=O)N[C@@H](C(C)C)C(=O)N(C)[C@@H](Cc2ccccc2)C(=O)N[C@@H](Cc2ccc(O)cc2)C(=O)N(C)CC(=O)N[C@@H](Cc2c[nH]c3ccccc23)C(=O)N[C@@H](Cc2ccc(O)cc2)C(=O)N[C@@H](Cc2ccc(Cl)cc2)C(=O)N[C@H](C(=O)NCC(N)=O)CSCC(=O)N[C@@H](Cc2ccccc2)C(=O)N(C)[C@@H](Cc2ccccc2)C(=O)N1C [Example 3098] ({CH2CO}-F[NMeF][NMeNle][Sar]DV[NMeF]Y[Sar]WY[Phe(4-Cl)]CG-NH2; thioether N-13) | – | < 7.52 | 7.14 to 8.32
CCCC[C@H]1C(=O)N(C)CC(=O)N[C@@H](CC(=O)O)C(=O)N[C@@H](C(C)C)C(=O)N(C)[C@@H](Cc2ccccc2)C(=O)N[C@@H](Cc2ccc(O)cc2)C(=O)N2[C@H](CCC2(C)C)C(=O)N[C@@H](Cc2c[nH]c3ccccc23)C(=O)N[C@@H](Cc2ccc(O)cc2)C(=O)N[C@@H](CC(C)C)C(=O)N[C@H](C(=O)NCC(N)=O)CSCC(=O)N[C@@H](Cc2ccccc2)C(=O)N(C)[C@@H](Cc2ccccc2)C(=O)N1C [Example 3184] ({CH2CO}-F[NMeF][NMeNle][Sar]DV[NMeF]Y[X11]WYLCG-NH2; thioether N-13) | – | < 7.52 | < 7.13
CCCC[C@H]1C(=O)N(C)[C@@H](CCCC)C(=O)N[C@@H](CCCNC(=N)N)C(=O)NC(C(=O)NCC(N)=O)CSCC(=O)N[C@@H](Cc2ccc(O)cc2)C(=O)N(C)[C@@H](CO)C(=O)N[C@@H](CC(N)=O)C(=O)N2CCC[C@H]2C(=O)N[C@@H](Cc2cnc[nH]2)C(=O)N[C@@H](CC(C)C)C(=O)N2C[C@H](O)C[C@H]2C(=O)N[C@@H](Cc2c[nH]c3ccccc23)C(=O)N[C@@H](CO)C(=O)N[C@@H](Cc2csc3ccccc23)C(=O)N1C (stereo partly shown) [Example 9039] ({CH2CO}-Y[NMeS]NPHL[Hyp]WS[Bta][NMeNle][NMeNle]R[ξC]G-NH2; thioether N-14) | 8.33 to 9.80 | 8.17 to 9.41 | –
CCCC[C@H]1C(=O)N(C)[C@@H](CCCC)C(=O)N[C@@H](CCCNC(=N)N)C(=O)N[C@H](C(=O)NCC(N)=O)CSCC(=O)N[C@@H](Cc2ccc(O)cc2)C(=O)N(C)[C@@H](C)C(=O)N[C@@H](CC(N)=O)C(=O)N2CCC[C@H]2C(=O)N[C@@H](Cc2cnc[nH]2)C(=O)N[C@@H](CCCCN)C(=O)N2C[C@H](O)C[C@H]2C(=O)N[C@@H](Cc2c[nH]c3ccccc23)C(=O)N[C@@H](CO)C(=O)N[C@@H](Cc2c[nH]c3ccccc23)C(=O)N1C [Example 5024] ({CH2CO}-Y[NMeA]NPHK[Hyp]WSW[NMeNle][NMeNle]RCG-NH2; thioether N-14) | 8.33 to 9.80 | 8.17 to 9.41 | –
CCCC[C@@H]1C(=O)N(C)[C@H](CCCC)C(=O)N[C@@H](CCCNC(=N)N)C(=O)N[C@@H](C(=O)NCC(N)=O)CSCC(=O)N[C@@H](Cc2ccc(O)cc2)C(=O)N2CCCCC2C(=O)N[C@H](CCC(=O)O)C(=O)N2CCC[C@H]2C(=O)N[C@H](Cc2c[nH]cn2)C(=O)N[C@@H](CCCN)C(=O)N2C[C@H](O)CC2C(=O)N[C@H](Cc2c[nH]c3ccccc23)C(=O)N[C@@H](CO)C(=O)N[C@@H](Cc2c[nH]c3ccccc23)C(=O)N1C (stereo partly drawn) [Example 1217] ({CH2CO}-Y[ξPip][dE]P[dH][Orn][ξPro(4R-OH)][dW]SW[dNMeNle][dNMeNle]R[dC]G-NH2; thioether N-14) | – | 7.52 to 8.17 | 7.14 to 8.32
CCCC[C@H]1C(=O)N(C)CC(=O)N[C@@H](CC(=O)O)C(=O)N[C@@H](C(C)C)C(=O)N(C)[C@@H](Cc2ccccc2)C(=O)N[C@@H](Cc2ccc(O)cc2)C(=O)N(C)CC(=O)N[C@@H](Cc2c[nH]c3ccccc23)C(=O)N[C@@H](Cc2ccc(O)cc2)C(=O)N[C@@H](CC(C)C)C(=O)N[C@H](C(=O)NCC(N)=O)CSCC(=O)N[C@@H](Cc2cc(F)c(F)c(F)c2)C(=O)N(C)[C@@H](Cc2ccccc2)C(=O)N1C [Example 3144] ({CH2CO}-[Phe(3,4,5-F3)][NMeF][NMeNle][Sar]DV[NMeF]Y[Sar]WYLCG-NH2; thioether N-13) | – | 7.52 to 8.17 | 8.33 to 9.80
CCCC[C@H]1C(=O)N(C)[C@@H](CCCC)C(=O)N[C@@H](CCCNC(=N)N)C(=O)N[C@H](C(=O)NCC(N)=O)CSCC(=O)N[C@@H](Cc2ccccc2)C(=O)N(C)[C@@H](C)C(=O)N[C@H](C)C(=O)N2CCC[C@H]2C(=O)N[C@@H](Cc2cnc[nH]2)C(=O)N[C@@H](CC(C)C)C(=O)N(C)CC(=O)N[C@@H](Cc2c[nH]c3ccccc23)C(=O)N[C@@H](CO)C(=O)N[C@@H](Cc2c[nH]c3ccccc23)C(=O)N1C [Example 1081] ({CH2CO}-F[NMeA][dA]PHL[Sar]WSW[NMeNle][NMeNle]RCG-NH2; thioether N-14) | – | < 7.52 | < 7.13
